In test [1] the target is T1, HDAC-1 (Homo sapiens, UniProt Q13547).
T1 construct: made in house; host or cells: Sf9 or Sf21 insect cells (baculovirus, donor vector pFB-GSTX3)
As to the kind of experiment: HDAC Inhibition Assay (purified GST-HDAC protein). The format is biochemical. An excerpt:
The baculovirus donor vector pFB-GSTX3 is used to generate a recombinant baculovirus that can express the HDAC polypeptide. Transfer vectors containing the HDAC coding region are transfected into the DH10Bac cell line (GIBCO) and plated on selective agar plates. Colonies without insertion of the fusion sequence into the viral genome (carried by the bacteria) are blue. Single, white colonies are picked and viral DNAs (bacmid) are isolated from the bacteria by standard plasmid purification procedures. Sf9 cells or Sf21 (American Type Culture Collection) cells are then transfected in […] flasks with the viral DNA using Cellfectin reagent.
Virus-containing media is collected from the transfected cell culture and used for infection to increase its titer. Virus-containing media obtained after two rounds of infection is used for large-scale protein expression. For large-scale protein expression 100 cm^2 round tissue culture plates are seeded with 5×10^7 cells/plate and infected with 1 mL of virus-containing media (at an approximately MOI of 5). After 3 days, the cells are scraped off the plate and centrifuged at 500 rpm for 5 minutes. Cell pellets from 10-20, 100 cm^2 plates, are re-suspended in 50 mL of ice-cold lysis buffer (25 mM tris-HCl, pH 7.5, 2 mM EDTA, 1% NP-40, 1 mM DTT, 1 mM P MSF). The cells are stirred on ice for 15 minutes and then centrifuged at 5,000 rpms for 20 minutes.
The centrifuged cell lysate is loaded onto a 2 mL glutathione-sepharose column (Pharmacia) and is washed thrice with 10 mL of 25 mM tris-HCl, pH 7.5, 2 mM EDTA, 1 mM DTT, 200 mM NaCl. The GST-tagged proteins are then eluted by 10 applications (1 mL each) of 25 mM tris-HCl, pH 7.5, 10 mM reduced-glutathione, 100 mM NaCl, 1 mM DTT, 10% glycerol and stored at −70° C.
HDAC assays with purified GST-HDAC protein are carried out in a final volume of 30 μL containing 15 ng of GST-HDAC protein, 20 mM tris-HCl, pH 7.5, 1 mM MnCl2, 10 mM MgCl2, 1 mM DTT, 3 μg/mL poly(Glu,Tyr) 4:1, 1% DMSO, 2.0 μM ATP (γ-[^33P]-ATP 0.1 μCi). The activity is assayed in the presence or absence of inhibitors. […] Subsequently, […] of the reaction mixture are transferred onto EMMOBILON-PVDF membrane (Millipore) previously soaked for 5 minutes with methanol, rinsed with water, then soaked for 5 minutes with 0.5% H3PO4 and mounted on vacuum manifold with disconnected vacuum source. After spotting all samples, a vacuum is connected and each well rinsed with 200 μL 0.5% H3PO4. Membranes are removed and washed four times on a shaker with 1.0% H3PO4, once with ethanol. Membranes are counted after drying at ambient temperature, mounting in Packard TopCount 96-well frame, and addition of 10 μL/well of MICROSCINT™ (Packard).
• Input: 3×4 μL stopped assay on IMMOBILON membrane, not washed • Background (3 wells): assay with H2O instead of enzyme • Positive control (4 wells): 3% DMSO instead of compound • Bath control (1 well): no reaction mix
In each experiment, the actual inhibition by reference compound is used for normalization of IC50 values to the basis of an average value of the reference inhibitor:
Normalized IC50=measured IC50 average ref. IC50/measured ref. IC50

The subject of test [2] is HCT116. As to the kind of experiment: HCT116 IC50. Format: cell-based. The settings on record: Homo sapiens, HCT-116.

T1 sequence (Q13547 whole entry, species assumed): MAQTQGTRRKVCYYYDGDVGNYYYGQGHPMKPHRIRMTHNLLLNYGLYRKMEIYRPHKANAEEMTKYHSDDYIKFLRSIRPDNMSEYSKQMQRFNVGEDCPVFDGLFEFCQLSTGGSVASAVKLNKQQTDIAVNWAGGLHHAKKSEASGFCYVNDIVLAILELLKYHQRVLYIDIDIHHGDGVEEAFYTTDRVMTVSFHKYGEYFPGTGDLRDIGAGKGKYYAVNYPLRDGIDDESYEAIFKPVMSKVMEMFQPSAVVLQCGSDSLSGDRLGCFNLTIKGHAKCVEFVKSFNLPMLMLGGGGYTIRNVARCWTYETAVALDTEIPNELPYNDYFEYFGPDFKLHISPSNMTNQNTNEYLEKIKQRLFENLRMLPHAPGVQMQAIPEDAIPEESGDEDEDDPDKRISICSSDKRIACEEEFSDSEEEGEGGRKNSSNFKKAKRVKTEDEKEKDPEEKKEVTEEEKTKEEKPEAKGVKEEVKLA

Turning to `Cc1[nH]c2ccccc2c1[C@H]1CCCN(Cc2ccc(/C=C/C(=O)NO)cc2)C1` [Compound 3, (E)-N-Hydroxy-3-{4-[(R)-3-(2-methyl-1H-indol-3-yl)-piperidin-1-ylmethyl]-phenyl}-acrylamide], the values for the IC50 in test [1] and in test [2] were 6 nM and 12 nM, respectively.

Take `O=C(/C=C/c1ccc(CN2CCOC(c3cc(-c4ccccc4)no3)C2)cc1)NO` (centres unmarked) [Compound 24, (E)-N-Hydroxy-3-{4-[2-(3-phenyl-isoxazol-5-yl)-morpholin-4-ylmethyl]-phenyl}-acrylamide]: the IC50 in test [1] is 32 nM; in test [2], 470 nM.

Regarding `CCOC(=O)c1[nH]c2ccccc2c1C1CCCN(Cc2ccc(/C=C/C(=O)NO)cc2F)C1` (centres unmarked) [Compound 17, 3-{1-[2-Fluoro-4-((E)-2-hydroxycarbamoyl-vinyl)-benzyl]-piperidin-3-yl}-1H-indole-2-carboxylic acid ethyl ester], the values for the IC50 in test [1] and in test [2] were 44 nM and 14 nM, respectively.

For the molecule `O=C(/C=C/c1ccc(CN2CCCC(c3c(C(=O)N4CCOCC4)[nH]c4ccccc34)C2)c(F)c1)NO` (centres unmarked) [Compound 19, (E)-3-(3-Fluoro-4-{3-[2-(morpholine-4-carbonyl)-1H-indol-3-yl]-piperidin-1-ylmethyl}-phenyl)-N-hydroxy-acrylamide], the 50% inhibitory concentration (IC50) was determined as 22 nM in test [1] and 500 nM in test [2].

As to `C=C(C)c1[nH]c2ccccc2c1C1CCCN(Cc2ccc(/C=C/C(=O)NO)cc2F)C1` (centres unmarked) [Compound 14, (E)-3-{3-Fluoro-4-[3-(2-isopropenyl-1H-indol-3-yl)-piperidin-1-ylmethyl]-phenyl}-N-hydroxy-acrylamide], the results for the IC50 in test [1] and in test [2] were 7 nM and 6 nM, respectively.

For the molecule `CC(C)(C)c1[nH]c2ccccc2c1C1CCCN(Cc2ccc(/C=C/C(=O)NO)cc2)C1` (centres unmarked) [Compound 6, (E)-3-{4-[3-(2-tert-Butyl-1H-indol-3-yl)-piperidin-1-ylmethyl]-phenyl}-N-hydroxy-acrylamide], the concentration for half-maximal inhibition (IC50) is 3 nM in test [1] and 0.3 nM in test [2].

With `O=C(/C=C/c1ccc(CN2CCCC(c3c[nH]c4ccccc34)C2)cc1)NO` (centres unmarked) [Compound 2, (E)-N-Hydroxy-3-{4-[3-(1H-indol-3-yl)-piperidin-1-ylmethyl]-phenyl}-acrylamide], the IC50 came out at 9 nM in test [1] and 32 nM in test [2].

In test [2], `CC(C)(C)c1[nH]c2ccccc2c1[C@@H]1CCCN(Cc2ccc(/C=C/C(=O)NO)cc2F)C1` [Compound 11, (E)-3-{4-[(S)-3-(2-tert-Butyl-1H-indol-3-yl)-piperidin-1-ylmethyl]-3-fluoro-phenyl}-N-hydroxy-acrylamide] yielded an IC50 of 0.8 nM.

`Cc1[nH]c2ccc(N3CCOCC3)cc2c1C1CCCN(Cc2ccc(/C=C/C(=O)NO)cc2)C1` (centres unmarked) [Compound 20, (E)-N-Hydroxy-3-{4-[3-(2-methyl-5-morpholin-4-yl-1H-indol-3-yl)-piperidin-1-ylmethyl]-phenyl}-acrylamide]: the IC50 is 7 nM in test [1] and 13 nM in test [2].

On to `Cc1[nH]c2ccccc2c1C1C/C(=N/O)CN(Cc2ccc(/C=C/C(=O)NO)cc2)C1` (centres unmarked) [Compound 8, (E)-N-Hydroxy-3-{4-[3-[(Z)-hydroxyimino]-5-(2-methyl-1H-indol-3-yl)-piperidin-1-ylmethyl]-phenyl}-acrylamide], for which the 50% inhibitory concentration (IC50) amounted to 17 nM in test [1] and 300 nM in test [2].

On to `O=C(/C=C/c1ccc(CN2CCCC(C3C(=O)Nc4ccccc43)C2)cc1)NO` (centres unmarked) [Compound 9, (E)-N-Hydroxy-3-{4-[3-(2-oxo-2,3-dihydro-1H-indol-3-yl)-piperidin-1-ylmethyl]-phenyl}-acrylamide], for which the IC50 in test [1] was 8 nM; in test [2], 48 nM.

For `O=C(/C=C/c1ccc(CN2CCCC(c3c(-c4ccccc4)[nH]c4ccccc34)C2)cc1)NO` (centres unmarked) [Compound 5, (E)-N-Hydroxy-3-{4-[3-(2-phenyl-1H-indol-3-yl)-piperidin-1-ylmethyl]-phenyl}-acrylamide], the IC50 came to 6 nM in test [1] and 2.1 nM in test [2].

On to `O=C(/C=C/c1ccc(CN2CCCC(c3c(-c4ccccc4)[nH]c4ccccc34)C2)c(F)c1)NO` (centres unmarked) [Compound 15, (E)-3-{3-Fluoro-4-[3-(2-phenyl-1H-indol-3-yl)-piperidin-1-ylmethyl]-phenyl}-N-hydroxy-acrylamide], for which the IC50 worked out at 11 nM in test [1] and 5.2 nM in test [2].

For `Cc1[nH]c2ccc(N3CCOCC3)cc2c1C1CCCN(Cc2ccc(/C=C/C(=O)NO)cc2F)C1` (centres unmarked) [Compound 4, (E)-3-{3-Fluoro-4-[3-(2-methyl-5-morpholin-4-yl-1H-indol-3-yl)-piperidin-1-ylmethyl]-phenyl}-N-hydroxy-acrylamide], the IC50 in test [1] amounted to 11 nM; in test [2], 13 nM.

As for `CC(C)(C)c1[nH]c2ccccc2c1C1CCCN(Cc2ccc(/C=C/C(=O)NO)cc2Cl)C1` (centres unmarked) [Compound 12, (E)-3-{4-[3-(2-tert-Butyl-1H-indol-3-yl)-piperidin-1-ylmethyl]-3-chloro-phenyl}-N-hydroxy-acrylamide], the half-maximal inhibitory concentration (IC50) is 19 nM in test [1] and 5 nM in test [2].

For the molecule `CC(C)(C)c1[nH]c2ccccc2c1C1=CCCN(Cc2ccc(/C=C/C(=O)NO)cc2)C1` [Compound 7, (E)-3-{4-[5-(2-tert-Butyl-1H-indol-3-yl)-3,6-dihydro-2H-pyridin-1-ylmethyl]-phenyl}-N-hydroxy-acrylamide], the IC50 in test [1] was 9 nM; in test [2], 12 nM.

In the case of `O=C(/C=C/c1ccc(CN2CCN(c3nc4ccccc4n3C(=O)c3ccccc3)CC2)cc1)NO` [Compound 31, (E)-3-{4-[4-(1-Benzoyl-1H-benzoimidazol-2-yl)-piperazin-1-ylmethyl]-phenyl}-N-hydroxy-acrylamide], in test [1], the half-maximal inhibitory concentration (IC50) came to 231 nM.

As to `O=C(/C=C/c1ccc(CN2CCC(c3ccc(Cl)cc3CN3CCCC3=O)CC2)cc1)NO` [Compound 40, (E)-3-(4-{4-[4-Chloro-2-(2-oxo-pyrrolidin-1-ylmethyl)-phenyl]-piperidin-1-ylmethyl}-phenyl)-N-hydroxy-acrylamide], the midpoint of inhibition in test [1], the IC50, lay at 27 nM.

As to `O=C(/C=C/c1ccc(CN2CCN(C(=O)NCc3ccccc3)c3ccccc32)cc1)NO` [Compound 61, 4-[4-((E)-2-Hydroxycarbamoyl-vinyl)-benzyl]-3,4-dihydro-2H-quinoxaline-l-carboxylic acid benzylamide], it took 250 nM to reach half-maximal inhibition in test [1] (IC50).

In test [1], `O=C(/C=C/c1ccc(CN2CCN(C(=O)OCc3ccccc3)CC2)cc1)NO` [Compound 29, 4-[4-((E)-2-Hydroxycarbamoyl-vinyl)-benzyl]-piperazine-1-carboxylic acid benzyl ester] registered an IC50 of 140 nM.

In the case of `O=C(/C=C/c1ccc(CN2CCCC(c3c(C(=O)NO)[nH]c4ccccc34)C2)c(F)c1)NO` (centres unmarked) [Compound 18, 3-{1-[2-Fluoro-4-((E)-2-hydroxycarbamoyl-vinyl)-benzyl]-piperidin-3-yl}-1H-indole-2-carboxylic acid hydroxyamide], the half-inhibitory concentration (IC50) in test [1] worked out at 31 nM; in test [2], 37 nM.

Turning to `O=C(/C=C/c1ccc(CN2CCN(C(=O)c3ccccc3)CC2)cc1)NO` [Compound 51, (E)-3-[4-(4-Benzoyl-piperazin-1-ylmethyl)-phenyl]-N-hydroxy-acrylamide], the IC50 in test [1] is 110 nM.

The molecule `Cc1cccc(S(=O)(=O)N2CCN(Cc3ccc(/C=C/C(=O)NO)cc3)CC2)c1` [Compound 56, (E)-N-Hydroxy-3-{4-[4-(toluene-3-sulfonyl)-piperazin-1-ylmethyl]-phenyl}-acrylamide] displayed a 50% inhibitory concentration (IC50) in test [1] of 260 nM.

For the molecule `CC(C)(O)c1[nH]c2ccccc2c1C1CCCN(Cc2ccc(/C=C/C(=O)NO)cc2F)C1` (centres unmarked) [Compound 13, (E)-3-(3-Fluoro-4-{3-[2-(1-hydroxy-1-methyl-ethyl)-1H-indol-3-yl]-piperidin-1-ylmethyl}-phenyl)-N-hydroxy-acrylamide], the IC50 in test [1] stood at 6 nM; in test [2], 2.8 nM.

In general, IC50 refers to the concentration that inhibits the measured activity by half.

(Values after US20110053925A1, “Hydroxamate-Based Inhibitors of Deacetylases” (Novartis AG, priority 2009, published 2011).)
